Test results: PMC7602804 (Nutrients, 2020)
“Also recorded” adds a separate entry of the source. No end group written: not given here.

How the values were obtained:
Caco-2 monolayer = assay: Passive permeability (Papp) of mannitol across Caco-2 monolayers, membrane integrity; format: in vitro ADME, human; settings: D-[1-14C]-Mannitol 3.5 µM, 56.8 mCi/mmol, apical, with or without milk peptides; A-B; 2.5 h; HBSS + 10 mM HEPES; liquid scintillation counting; mean ± standard deviation of four or five inserts
Experimental: (§1) The Caco-2 cells used for transport studies were seeded in polyethylene terephthalate culture inserts, with a pore size of 0.4 μm and a growth area of 0.33 cm^2 at a density of approximately 25,000 cells/insert. The Caco-2 cells were grown for three weeks on the porous membrane before they were used for transepithelial transport. The integrity of the monolayers was confirmed by measuring the TEER using a Millicell ERS-2 volt ohmmeter. Only Caco-2 monolayers with TEER values above 400 Ω cm^2 were used for the transport analysis.
(§2) Following the TEER value measurement, the Caco-2 and PBEC monolayers were gently washed twice with phosphate-buffered saline, and the transport medium (Hanks’ Balanced Salt solution supplemented with 10 mM of HEPES) was added to the apical and basolateral compartments. […] Basolateral samples were mixed with Ultima Gold liquid scintillation fluid (Perkin Elmer) and counted in a Tri-Carb 2810 TR scintillation counter (Perkin Elmer). The apparent permeability coefficient (Papp, cm/s) was determined as Papp = (dQ/dt)/(AC0) where dQ/dt is the steady state flux (cpm/s), A is the surface area of the cell culture insert membrane and C0 is the initial concentration in the apical compartment (cpm/mL). […]

[1] = system: PBEC monolayer (BBB model); assay: Passive permeability (Papp) of mannitol across PBEC monolayers, membrane integrity; format: in vitro ADME, porcine; settings: D-[1-14C]-Mannitol 3.5 µM, 56.8 mCi/mmol, apical, with or without milk peptides; A-B; 2.5 h; HBSS + 10 mM HEPES; liquid scintillation counting; mean ± standard deviation of four or five inserts
Experimental: PBECs were grown until 70–80% confluency as described above and then passaged onto polyester culture inserts with a pore size of 0.4 μm and a growth area of 1.12 cm^2 (Costar, Corning, NY, USA) at a density of 1.1 × 10^5 cells/cm^2 in the PBEC growth medium. In the basolateral chamber, the medium consisted of 1 mL of PBEC growth medium and 0.5 mL of astrocyte conditioned medium. The medium was supplemented with differentiation factors: 550 nM of hydrocortisone, 250 μM of 8-(4-chlorophenylthio)adenosine-3′,5′-cyclic monophosphate (cAMP) and 17.5 μM of RO-201724 two days after seeding. The next day, the integrity of the PBEC monolayer was confirmed by measuring the TEER. […]
as §2

Caco-2 monolayers [2] = system: Caco-2 monolayers; set-up: method as in PMID 20397193, PMID 23561097; settings: Caco-2 monolayer; cited from earlier work
[3] = system: porcine brain endothelial cell (PBEC) monolayers; assay: Apical to basolateral transport of milk peptides across porcine brain endothelial cell (PBEC) monolayers, blood-brain barrier model; format: in vitro ADME; settings: primary PBEC on polyester inserts 0.4 μm, astrocyte conditioned medium, TEER higher than 800 Ω cm^2; A-B; mix of 192 milk peptides 0.1 mg/mL apical; HBSS + 10 mM HEPES; 2.5 h; LC-MS/MS; five independent studies; αS1 peptide 'or' its truncated peptides stated collectively
Experimental: Capillaries were isolated from the brain cortices of domestic pigs 5–6 months old as previously described. PBECs were cultured by plating the capillaries in T75 flasks coated with collagen IV (500 µg/mL) and fibronectin (100 µg/mL) in DMEM-F12 medium, supplemented with 10% plasma-derived serum (First Link, Wolverhampton, UK), heparin (15 U), 100 units/mL of penicillin and 100 µg/mL of streptomycin (PBEC growth medium), and cultured in an incubator with humidified 5% CO2/95% air at 37 °C. Puromycin (4 µg/mL) was added to the growth medium for the first three days to obtain a pure culture of PBECs.
Astrocyte conditioned medium was collected every third day from primary rat astrocytes, sterile filtered and frozen until use. Isolation of primary rat astrocytes and preparation of astrocyte conditioned media were carried out as described in [20].
PBECs were grown until 70–80% confluency as described above and then passaged onto polyester culture inserts with a pore size of 0.4 μm and a growth area of 1.12 cm^2 (Costar, Corning, NY, USA) at a density of 1.1 × 10^5 cells/cm^2 in the PBEC growth medium. In the basolateral chamber, the medium consisted of 1 mL of PBEC growth medium and 0.5 mL of astrocyte conditioned medium. The medium was supplemented with differentiation factors: 550 nM of hydrocortisone, 250 μM of 8-(4-chlorophenylthio)adenosine-3′,5′-cyclic monophosphate (cAMP) and 17.5 μM of RO-201724 two days after seeding. The next day, the integrity of the PBEC monolayer was confirmed by measuring the TEER. Only PBEC monolayers with TEER values higher than 800 Ω cm^2 were used for the transport analysis.
(§3) Following the TEER value measurement, the Caco-2 and PBEC monolayers were gently washed twice with phosphate-buffered saline, and the transport medium (Hanks’ Balanced Salt solution supplemented with 10 mM of HEPES) was added to the apical and basolateral compartments. The inserts were incubated for 15 min or 2.5 h with the purified milk peptides (0.1 mg/mL) or the synthetic PIGSENSEKTTMPLW peptide (2 µg/mL), after which medium from the apical and basolateral compartments were collected for liquid chromatography tandem mass spectrometry (LC-MS/MS) analysis. Inserts incubated with a medium without peptides served as the control in the transport experiments. Membrane integrity was validated by addition of D-[1-^14C]-Mannitol (3.5 µM, 56.8 mCi/mmol) (Perkin Elmer, Waltham, MA, USA) to the upper chamber of the culture inserts with or without milk peptides for 2.5 h. The passive permeability experiments were performed on four or five individual culture inserts. Basolateral samples were mixed with Ultima Gold liquid scintillation fluid (Perkin Elmer) and counted in a Tri-Carb 2810 TR scintillation counter (Perkin Elmer). The apparent permeability coefficient (Papp, cm/s) was determined as Papp = (dQ/dt)/(AC0) where dQ/dt is the steady state flux (cpm/s), A is the surface area of the cell culture insert membrane and C0 is the initial concentration in the apical compartment (cpm/mL).
LC-MS/MS analysis was performed on a TripleTOF 6600 mass spectrometer equipped with an Exigent nanoLC 415 system (AB Sciex, Les Ulis, France). All samples were micro-purified using 3 M Empore C18 discs packed in pipette tips. The lyophilized samples were dissolved in 0.1% formic acid, injected on a trap column (2 cm × 100 µm inner diameter) and separated on an analytical column packed in-house in a pulled emitter (15 cm × 75 µm inner diameter). All columns were packed with ReproSil-Pur C18-AQ 3 µm resin (courtesy of Dr. Marisch, Ammerbuch-Entringen, Germany). […]

Caco-2 monolayers [4] = assay: Apical to basolateral transport of milk peptides across Caco-2 monolayers (LC-MS/MS of basolateral medium); format: in vitro ADME, human; settings: Caco-2, 3 weeks on PET inserts 0.4 μm, TEER above 400 Ω cm^2; A-B; mix of 192 purified milk peptides 0.1 mg/mL apical; HBSS + 10 mM HEPES; 2.5 h; LC-MS/MS of basolateral medium; identified in two out of three experiments
Experimental: The human colorectal adenocarcinoma cell line, Caco-2, was obtained from DSMZ (Braunschweig, Germany). The cells were grown to 50–60% confluence in Dulbecco’s Modified Eagle Medium (DMEM) Glutamax cell culture medium, supplemented with 10% heat-inactivated fetal bovine serum, 100 units/mL of penicillin and 100 μg/mL of streptomycin (all from Invitrogen, Carlsbad, CA, USA) in a humidified 5% CO2/95% air atmosphere at 37 °C. The cells used in the experiments were between passages 30 and 40.
as §1, §3
LC-MS/MS analysis was performed on a TripleTOF 6600 mass spectrometer equipped with an Exigent nanoLC 415 system (AB Sciex, Les Ulis, France). All samples were micro-purified using 3 M Empore C18 discs packed in pipette tips. The lyophilized samples were dissolved in 0.1% formic acid, injected on a trap column (2 cm × 100 µm inner diameter) and separated on an analytical column packed in-house in a pulled emitter (15 cm × 75 µm inner diameter). All columns were packed with ReproSil-Pur C18-AQ 3 µm resin (courtesy of Dr. Marisch, Ammerbuch-Entringen, Germany). Peptides were eluted directly into the mass spectrometer with a linear gradient from 5 to 35% solvent B (0.1% formic acid in acetonitrile) for 20 min with a flowrate of 250 nL/min, followed after 10 min with 100% solvent B. Data files were converted to Mascot Generic Format using the Raw Converter (version 1.1.0.18) (http://fields.scripps.edu/rawconv/) or the AB Sciex MS Data Converter beta 1.1 (AB Sciex, Les Ulis, France). The generated peak lists were searched against the Bos taurus proteome (UniProt database, https://www.uniprot.org)) using an in-house Mascot search engine (Matrix Science, London, UK). The searches were made without specifying a protease and with oxidation (Met) and phosphorylation (ST) as variable modifications. Peptide tolerance was set to 10 ppm and MS/MS tolerance was set to 0.2 Da. […]

[5] = system: angiotensin-converting enzyme (ACE); settings: potential anti-hypertensive peptides; cited from earlier work
From the text: The ACE-inhibitory ability is presumably mediated through the derived fragments TTMPLW and KTTMP [36, 37]. Thus, the transport of this peptide across physiological barriers could influence the regulation of arterial blood pressure. Furthermore, ACE is present in the brain and plays a key role in high salt induced sympatho-excitation, hypertension, neuroprotection, cognition and cerebr ...

[6] = Caco-2 monolayers in culture inserts; transport medium (Hanks' Balanced Salt solution supplemented with 10 mM of HEPES); basolateral medium analysed; settings: human, up to 2.5 h
[7] = primary porcine brain endothelial cell (PBEC) monolayers in culture inserts; transport medium (Hanks' Balanced Salt solution supplemented with 10 mM of HEPES); basolateral medium analysed; settings: up to 2.5 h
[8] = system: pepsin from porcine gastric mucosa, then trypsin and chymotrypsin from a bovine pancreas and elastase; assay: synthetic peptide: pepsin in 0.15 M NaCl pH 2.5 (1:100 w/w, 60 min), then trypsin, chymotrypsin (1:100 w/w) and elastase (1:500 w/w) in 50 mM ammonium bicarbonate pH 7.6; settings: 37 °C, up to 270 min
[9] = system: pepsin from porcine gastric mucosa, then trypsin and chymotrypsin from a bovine pancreas and elastase; assay: purified milk peptide mix: pepsin in 0.15 M NaCl pH 2.5 (1:100 w/w), then trypsin, chymotrypsin (1:100 w/w) and elastase (1:500 w/w) in 50 mM ammonium bicarbonate pH 7.6; settings: 37 °C, up to 60 min

## OC[C@@H](O)[C@@H](O)[C@H](O)[C@H](O)CO [D-[1-^14C]-Mannitol]
Caco-2 monolayer
  Apparent permeability coefficient (Papp) of the Caco-2 monolayer: 9.45 ± 2 × 10^−7 cm s^−1
[1]
  Papp for the BBB (PBEC monolayer): 1.09 ± 0.14 × 10^−6 cm s^−1

## EPVLGPVRGPFPIIV [EPVLGPVRGPFPIIV]
Caco-2 monolayers [2]
  Crossing of in vitro intestinal barrier models in other studies: shown to cross over in vitro intestinal barrier models
[3]
  Peptide identified in the basal compartment (brain side) of the PBEC BBB model (transported): identified in the basal compartment of the BBB model
Caco-2 monolayers [4]
  Peptide identified in the basolateral chamber of Caco-2 monolayers (transported): not transported across the Caco-2 monolayers

## IGSENSEKTTMP [truncated derivative of the αS1-casein peptide …]
[3]
  Peptide identified in the basal compartment (brain side) of the PBEC BBB model (transported): identified in all experiments
[5]
  Inhibition of the activity of angiotensin-converting enzyme (ACE): can inhibit the activity of angiotensin-converting enzyme

## PIGSENSEKTTMPLW
[6]
  fragment found: PIGSENSEKTTMP (Mox), 2.5 h; also recorded: PIGSENSEKTT, 2.5 h
[7]
  fragment found: PIGSENSEKTTMP (Mox), 2.5 h; also recorded: PIGSENSEKTT, 2.5 h
[8]
  not cleaved: ion corresponding to the peptide observed even after 270 min of digestion
[9]
  not cleaved: peptide ion still observed after pepsin and pancreatic enzyme digestion
